Experimental data from a melting point compilation (Tetko et al.; mined from patent text by program, amines drawn as free bases though some values may be those of a salt).

| SMILES | melting point |
| --- | --- |
| COc1cc(C(=O)C#Cc2ccccc2)cc(OC)c1OC | 94 to 96 °C |
| COc1cccc(NC(=O)C(C)(C)C)c1CCO | 118 to 120 °C |
| CCC(=O)O[C@H]1C[C@@H](C(=O)OC)[C@]2(C)CC[C@H]3C(=O)O[C@H](c4ccoc4)C[C@]3(C)[C@H]2C1=O | 217 to 221 °C |
| CC(=O)NC1(c2ccc(Cl)c(C(F)(F)F)c2)CCN(Cc2ccccc2)CC1 | 198 to 199 °C |
| CCC1(C)CC(NC(=O)c2ccccc2C(=O)O)C(C)C(C)(CC)N1 (centres undefined) | 196 to 197 °C |
| Cc1ccc2c(c1C)C(=O)C(=O)N2 | 225 to 226 °C |
| CCOC(=O)c1cn2c(n1)C=NC=C1C=CCC=C12 | 134 to 135 °C |
| N#CCC(O)(c1ccc(Br)cc1)c1ccc(-c2ccc(Br)cc2)cc1 (centres undefined) | 154 °C |
| O=C(Nc1ccc(Br)cc1CO)C(F)(F)F | 97 to 103 °C |
| COC1C(OC(=O)N2CCOCC2)CCC2(CO2)C1C1(C)OC1CCC(C)C (centres undefined) | 64 to 65 °C |
| COC(=O)CCC(C)C(=O)N1CCC[C@H]1C(=O)O (some centres undefined) | 174 to 175 °C |
| Cc1oc(=O)oc1Cn1cc[nH]c(=O)c1=O | 225 to 226 °C |
| O=C(Nc1ccc2c(c1)CCN(Cc1ccccc1)C2)c1ccccc1-c1ccc(C(F)(F)F)cc1 | 230 to 232 °C |
| CN(C(=O)c1ccc2nonc2c1)C1CCN(C=O)CC1 | 163 to 165 °C |
| CC(=O)N1CCCC(=O)c2ccc(Cl)cc2C(c2ccccc2)CC1=O (centres undefined) | 184 to 185 °C |
| CCCN(CCC)CCc1ccc(OC)c(C(=O)O)c1OC | 174 to 177 °C |
| NC(=O)CC[C@H](Nc1ccc(CC(=O)O)cc1)C(=O)O | 198 to 200 °C |
| CC(=O)Nc1ccc(S(=O)(=O)N(Cc2cc(C(C)(C)C)c(O)c(C(C)(C)C)c2)c2cccnc2)cc1 | 167 to 169 °C |
| Cc1cc2ncc(Nc3ccc(Br)cc3)nc2cc1C | 235 °C |
| Clc1ccc2nc(CN3CCN(c4ccccc4)CC3)cn2c1 | 128 to 130 °C |
| O=C(NCc1cccnc1)c1ccc2n1Cc1ccccc1N(C(=O)c1ccc(-c3ccccc3CN3CCCCC3)cc1)C2 | 199 to 202 °C |
| O=[N+]([O-])c1ccc(S(=O)(=O)Nc2ccc(O)cc2)cc1 | 197 to 198 °C |
| Cn1c(CNCC(C)(C)S(C)(=O)=O)cc2cc(NC(=O)c3ccc(OCC4CC4)cc3)ccc21 | 168 to 169 °C |
| CCCc1nc(NC(=N)N)sc1-c1cccc([N+](=O)[O-])c1 | 137 to 139 °C |
| O=Cc1cc([N+](=O)[O-])ccc1Sc1ccccc1 | 96 to 100 °C |

| SMILES | melting point |
| --- | --- |
| CCCCCSc1cc(C(C)(C)C)c(O)c(C(C)(C)C)c1 | 54 to 55 °C |
| CC(=O)Nc1ccc(Cc2nc3cc(CC4SC(=O)NC4=O)ccc3o2)cc1 (centres undefined) | 233 to 236 °C |
| CC12CCC(C(=Cc3ccc(C(=O)O)cc3)C1=O)C2(C)C (centres undefined) | 240 °C |
| COc1cccc2c1nc(C(F)F)n2-c1nc(N2CCOCC2)nc(N(C)c2cncnc2)n1 | 214 to 217 °C |
| CCN(CC)CC1CCCCN1CCNC(=O)N1c2ccccc2NC(=O)c2cccnc21 (centres undefined) | 146 to 148 °C |
| CC(=O)c1ccc(C2c3cc(NC(=O)CC(C)(C)C)c(C)c(C)c3OC2(C)C)cc1 (centres undefined) | 195 to 196 °C |
| O=S(=O)(O)c1ccccc1Nc1ccnc2cc(Cl)ccc12 | > 300 °C |
| Cn1cc(C(=O)NCc2ccc(Cl)cc2)c(=O)c2cc(I)sc21 | 236 to 237 °C |
| CCc1nc2c(N)nc3c(c2n1CCCCS(=O)(=O)NC)CCCC3 | 166 to 170 °C |
| COc1cccc2sc(NC(=O)CO)nc12 | 193 to 195 °C |
| O=C(O)/C(=C/c1ccc(OCc2ccccc2)cc1OCc1ccccc1)NC(=O)c1ccccc1 | 149 to 150 °C |
| CCCCC(NC(=O)C(CC(C)C)NC(=O)c1cccc2ccccc12)C(=O)CSCc1ccco1 (centres undefined) | 81 to 83 °C |
| CC(=O)Nc1ccccc1C(C)=O | 99 to 100 °C |
| CCOC(=O)c1c(-c2ccccc2)nn2c1-c1ccccc1CC2 | 84 to 85 °C |
| C[C@@H](NS(=O)(=O)c1cccs1)c1cccc(C(=O)c2ccco2)c1 | 105 to 106 °C |
| Cn1c(=O)nc(-c2ccccc2)c2cc(Cl)sc21 | 136 to 140 °C |
| Cc1oc(-c2ccccc2)nc1C(=O)COc1ccc(C=C2SC(=O)NC2=O)cc1 | 244 to 245 °C |
| O=C(O)CN1C(=O)COc2cc(F)ccc21 | 183 to 184 °C |
| C=C(C)COc1ccc2c(C)cc(=O)oc2c1C(=O)C=Cc1ccccc1 | 158 to 160 °C |
| CNC(=O)c1ccc(F)c2c1CC(N(CCCCc1c[nH]c3ccc(F)cc13)C1CCC1)CO2 (centres undefined) | 123 °C |
| CCCCCN(CCc1c[nH]c2ccccc12)C(=O)CCCC(=O)OC | 70 to 71 °C |
| Cc1nnc2c3cccc(Br)c3ccn12 | 203 to 204 °C |
| COC(=O)C(O)C1OC(n2cnc3c(N)ncnc32)C(O)C1O (centres undefined) | 215 to 217 °C |
| CCCCn1c(C)c(C(=O)Nc2c(CC)cccc2CC)c(=O)c(Br)c1CC | 132 to 134 °C |
| CCCc1c(OCCCCCOc2ccc(Cl)cc2CCC(=O)O)ccc2c1OCCC2=O | 101 to 103 °C |

| SMILES | melting point |
| --- | --- |
| CN1CCC(=O)C(C2c3ccccc3CCc3ccccc32)C1 (centres undefined) | 146 to 147 °C |
| CCCCCCCCCCCCOC(=O)COCC(=O)O | 57 to 59 °C |
| O=c1oc2ccc(-c3ccc(F)cc3F)cc2c(=O)n1-c1cccc(C(F)(F)F)c1 | 165 to 166 °C |
| CCC(Cl)C(=O)NCCSc1nc(C(C)(C)C)n[nH]1 (centres undefined) | 68 to 70 °C |
| CCCCc1nc2c(N)nc3ccccc3c2n1NCc1ccccc1 | 159 to 160 °C |
| N/C(=C1/Sc2ccc(Cl)cc2C1=O)c1ccccc1 | 172 to 173 °C |
| NC[C@H]1CCCN1C(c1ccccc1)(c1ccccc1)c1ccccc1 | 100 °C |
| CCOC(=O)C1=C(C)NC(C)=C(C(=O)OCC)C1c1c(Cl)cccc1Cl | 134 to 135 °C |
| COc1nc(N)nc2c1ncn2C1O[C@H](CO)C[C@@]1(C)O (some centres undefined) | 140 to 142 °C |
| O=C(CCC(=O)c1ccc(F)cc1)Nc1ccc(-n2nc(C(F)(F)F)cc2C(F)(F)F)cc1 | 156 to 158 °C |
| CC(C)(C)CC(C)(C)c1cc(-n2nc3ccccc3n2)c(O)c(C(C)(C)c2ccccc2)c1 | 109 to 111 °C |
| O=[N+]([O-])c1ccc(-c2cccnc2)cc1 | 145 to 148 °C |
| Cc1ncc(C(=O)O)nc1C | 187 °C |
| O=C1Cc2cccc(Sc3ccccc3)c2N1 | 160 to 161 °C |
| O=C1OC(CCl)CN1c1ccc(Cl)cc1 (centres undefined) | 119 to 120 °C |
| Cc1ccc(N2C(=O)C(O)=C(C(=O)c3ccc(N4CCOCC4)cc3)C2c2ccc(OC(F)(F)F)cc2)nn1 (centres undefined) | 234 °C |
| COc1cc(C)c(OC)c(C=C(C)[N+](=O)[O-])c1C | 48 to 49 °C |
| CC(C)(C)n1nc(Cc2ccccc2)c(C#N)c1N | 106 to 110 °C |
| CCCCCC(=O)N1CCN2C[C@@H](c3ccccc3)c3ccccc3[C@@H]2C1 (relative stereo) | 163 to 164 °C |
| CCOCn1cc(C(C)=O)c2c(OC)cc(Br)nc21 | 114 to 116 °C |
| O=C(Cc1ccccc1)N1CC2CCC(C1)O2 | 106 °C |
| COc1cc2c(=O)n(CCO)c3c4cc5c(cc4ncc3c2cc1OC)OCO5 | 285 to 286 °C |
| O=C(O)c1cc(Cl)c(Oc2ccc(O)cc2)c(Cl)c1 | 163 to 165 °C |
| CCOC(=O)C1(C(=O)O)Cc2cc(OC)c(OC)cc2C1 | 146 to 148 °C |
| CN1CCOc2ccc(S(=O)(=O)n3c(Cc4ccc(C(=O)O)cc4)cc4c(Cl)cccc43)cc21 | 236 °C |

| SMILES | melting point |
| --- | --- |
| O=C(c1ccc(C(=O)N2CC3COCC3C2)cc1)N1CC2COCC2C1 (centres undefined) | 192 to 193 °C |
| Cc1oc(-c2ccccc2)nc1CCOc1ccc(CCCO)cc1 | 99 to 100 °C |
| CN1CCc2ccc(C(=O)CCC(=O)N3CCC(c4ccc(Cl)cc4)CC3)cc2C1 | 139 to 140 °C |
| CCCCc1nn(-c2cc([N+](=O)[O-])ccc2Cl)c(=O)n1Cc1ccc(-c2cc(CCC)ccc2S(=O)(=O)NC(C)(C)C)cc1F | 84 to 86 °C |
| O=S(=O)(Nc1cccc(CCOCc2ccc(-c3ccc(Cl)cc3)cc2)c1)C(F)(F)F | 69 to 70 °C |
| COc1cc2c(cc1OC(C)C)-c1c(-c3cccs3)c3c(n1CC2)C(=O)N(C(C)C)CCN(C(=O)OC(C)(C)C)C3 | 205 to 206 °C |
| Cc1ccc(C(=O)NCCCCN2CCN(C(c3ccccc3)c3ccccc3)CC2)c(O)n1 | 213 to 214 °C |
| COc1cc(-c2csc(Br)c2Br)cc2oc(=O)c(C)c(C)c12 | 194 to 196 °C |
| NC1=NCC(NC=O)(N[C@@H]2CC=C(CO)C2)C(Cl)=N1 (some centres undefined) | 148 to 150 °C |
| O=C(Nc1cccnn1)N1CCN(c2nccc(-c3ccc(F)cc3F)n2)CC1 | 184 to 185 °C |
| CC1(c2ccc(F)cc2)CN(Cc2ccc(COc3cccc4c3CN(C3CCC(=O)NC3=O)C4=O)cc2)CCO1 (centres undefined) | 118 to 120 °C |
| CC(C)C[C@H](NC(=O)OCc1ccccc1)C(=O)N[C@@H](Cc1ccccc1)C(=O)CSCCCl | 77 to 80 °C |
| COc1cccc([C@H]2O[C@H](CC(=O)N[C@H](C)C(=O)OC(C)(C)C)C(=O)N(CC(C)(C)C)c3ccc(Cl)cc32)c1OC | 127 to 128 °C |
| Cc1ccc(OCC2CN=C(N)O2)c(C)c1 (centres undefined) | 116 °C |
| CCOC(=O)N1Cc2ccccc2C2(Cc3ccccc3O2)C1 (centres undefined) | 65 to 75 °C |
| CC(=O)c1cccc2c1CCc1ccccc1C2=O | 65 to 68 °C |
| CS(=O)(=O)c1cccc(NC(=O)c2cnn3c(C(F)(F)F)cc(-c4ccc(C(F)(F)F)cc4)nc23)c1 | 259 °C |
| CC(=O)Oc1ccc(C(=O)NOCc2ccccc2)cc1 | 120 to 122 °C |
| CCOC(=O)c1ncc(C)c(-c2ccccc2)c1C(=O)N(CCO)Cc1cc(C(F)(F)F)cc(C(F)(F)F)c1 | 138 to 139 °C |
| Cc1c(-c2ccncc2)oc2c1C(=O)OC(C)C2 (centres undefined) | 157 to 160 °C |
| CCOC(=O)C(CC(=O)c1cccc(C(F)(F)F)c1)(NC(C)=O)C(=O)OCC | 91 to 92 °C |
| CCOC(=O)c1cc(O)ccc1CCc1cc2cc(C#N)ccc2o1 | 133 to 135 °C |
| Fc1ccc(/C=C/c2nc(COc3ccc(CCCCn4ccnn4)cc3)co2)cc1 | 124 to 125 °C |
| COC(NC(C)=O)(C(=O)O)C(Br)Br (centres undefined) | 143 to 144 °C |
